The values that follow come from US12005127B2, “DNA-PK inhibitors” (VERTEX PHARMACEUTICALS INCORPORATED, priority 2018, dated 2024).

SMILES strings stand for the structures. Where only a bound is given, the exact number is not on record here.

For experiment [1], the target named is T1, DNA-PK (Homo sapiens, UniProt P78527). The experiment can be described thus: DNA-PK cellular assay (pDNA-PK Ser2056 sandwich ELISA, NCS-induced DSBs). Type of experiment: cell-based. Also on record: endogenous in cells; host or cells: A549 (human NSCLC). To be noted: pDNA-PK (Ser2056) in A549 cells, NCS 50 ng/ml, 15 minutes. The text has this: DNA-PK is recruited to and activated by double-strand breaks (DSB) in DNA and plays a critical role in the non-homologous end-joining (NHEJ) repair mechanism. Upon activation, DNA-PK undergoes rapid autophosphorylation at Ser2056. The measure of pDNA-PK (Ser2056) in response to DNA DSBs provides a cellular signaling assay to evaluate potential DNA-PK kinase inhibitors.
Neocarzinostatin (NCS) was used as a radiomimetic to induce DNA DSBs. The sandwich ELISA used the Meso Scale Discovery electrochemiluminescence technology platform which typically provides greater sensitivity than traditional ELISA formats.
A549 (human NSCLC) cells are plated at 25,000 cells/well in 100 uL of DMEM (Invitrogen cat #11995-040) supplemented with 1% Pen/Strep (Invitrogen cat #15070-063) and 10% FBS (Hyclone cat #SH30071.03HI) on black clear bottom 96 well plates (Costar #3904) and allowed to adhere overnight at 37° C. in 5% CO2. The following day, the compounds and NCS solutions are prepared by adding 100 ul of DMEM growth media per well in a Corning polypropylene V-bottom deep well plate (cat #3357). The HP Compound Dilution D300 instrument was used to add compounds to the appropriate wells using the setting logarithmic and 16-point titration singlet.
The DMEM NCS solution was prepared by adding NCS to DMEM media at 200 ng/ml (final assay concentration, 50 ng/ml). 100 ul of the DMEM/NCS solution is added to the wells with the compounds. 100 ul of this solution is then immediately added to the A549 cells. The cells are then incubated for 15 minutes at 37° C.
The complete lysis buffer is prepared by adding 1% Phosphatase inhibitor (Sigma cat #P2850) and 1% Protease Inhibitor (Sigma cat #P8340) to the Lanthascreen cellular assay lysis buffer (Invitrogen cat #PV5598). The media from the plate was removed by flicking and patting dry. 60 uL/well of the complete lysis buffer is added to each well. These plates are then incubated for at least 5 minutes in the lysis buffer at room temperature to ensure complete lysis. At this point the lysates can be transferred to prepared ELISA plates.
The prepared ELISA plates were prepared blocking the Mesoscale Goat-Anti-Mouse (GAM) plates with 150 uL/well of 3% Blocker A (Mesoscale cat #R93-BA) for one hour at room temperature with shaking. The capture antibody is prepared by diluting the mouse monoclonal anti-total DNA-PK (AbCAM cat #ab1832) to 3 ug/mL in 1% Blocker A. The blocked plates rinsed once with 200 uL D-PBS. The capture antibody (25 ul/well) was added to each well and allowed to incubate for an hour at room temperature while shaking. This was rinsed once with 200 ul D-PBS before adding 25 uL of the prepared cell lysate from the cell plates to the Mesoscale GAM ELISA plate. The lysate is then incubated on the plates for one hour at room temperature with shaking. The detection antibody (Epitomics rabbit anti-pS2056-DNA-PK) is prepared at a 1/1000 dilution (to a final concentration of 450 ng/mL) in 1% Blocker A. The GAM plates are washed once with 200 uL of D-PBS and then 25 uL/well of the detection antibody is added to the plate. This incubates for one hour at room temperature with shaking. The Sulfotag is prepared by adding Sulfo-Tag Goat-Anti-Rabbit antibody (Mesoscale cat #R32AB-1) at a 1/500 dilution (1 ug/mL) to 1% Blocker A. The GAM plates are washed with 200 uL of D-PBS and then 25 uL of the Sulfotag preparation is added to each well. Once the plates have been incubated with the final solution, the Sulfotag, for 1 hour, they are washed once with 200 uL of D-PBS. The 1× Read Buffer (Mesoscale cat #R32-TC) is made by diluting the 4× buffer in ddH20. 150 uL of 1× buffer is added to each well of the GAM plate and then the plate is read on the Sector Imager 2400. The readout (electrochemiluminescence) was plotted against the concentration of each compound and the IC50s were generated using Prism software (GraphPad Prism version 6.0e for Macintosh). […]

Experiment [2] has as its target T1, DNA-PK. The experiment can be described thus: DNA-PK inhibition assay (radiometric 33P-ATP kinase assay). Type of experiment: biochemical. Particulars: competitive tight-binding fit. On the procedure:
Compounds were screened for their ability to inhibit DNA-PK kinase using a standard radiometric assay. Briefly, in this kinase assay the transfer of the terminal ^33P-phosphate in ^33P-ATP to a peptide substrate is interrogated. The assay was carried out in 384-well plates to a final volume of 50 μL per well containing approximately 6 nM DNA-PK, 50 mM HEPES (pH 7.5), 10 mM MgCl2, 25 mM NaCl, 0.01% BSA, 1 mM DTT, 10 μg/mL sheared double-stranded DNA (obtained from Sigma), 0.8 mg/mL DNA-PK peptide (Glu-Pro-Pro-Leu-Ser-Gln-Glu-Ala-Phe-Ala-Asp-Leu-Trp-Lys-Lys-Lys, obtained from American Peptide), and 100 μM ATP. Accordingly, compounds of the invention were dissolved in DMSO to make 10 mM initial stock solutions. Serial dilutions in DMSO were then made to obtain the final solutions for the assay. A 0.75 μL aliquot of DMSO or inhibitor in DMSO was added to each well, followed by the addition of ATP substrate solution containing ^33P-ATP (obtained from Perkin Elmer). The reaction was started by the addition of DNA-PK, peptide and ds-DNA. After 45 min, the reaction was quenched with 25 μL of 5% phosphoric acid. The reaction mixture was transferred to MultiScreen HTS 384-well PH plates (obtained from Millipore), allowed to bind for one hour, and washed three times with 1% phosphoric acid. Following the addition of 50 μL of Ultima Gold™ high efficiency scintillant (obtained from Perkin Elmer), the samples were counted in a Packard TopCount NXT Microplate Scintillation and Luminescence Counter (Packard BioScience). The Ki values were calculated using Microsoft Excel Solver macros to fit the data to the kinetic model for competitive tight-binding inhibition. In Tables 1 and 2 below, Ki of less than 0.001 micromolar for the inhibition of DNA-PK is indicated as “A”; Ki of equal to or greater than 0.001 micromolar and less than 0.01 micromolar for the inhibition of DNA-PK as “B”; Ki of equal to or greater than 0.01 micromolar and less than 0.1 micromolar for the inhibition of DNA-PK as “C”; Ki of equal to or greater than 0.1 micromolar and less than 1 micromolar for the inhibition of DNA-PK for “D”; and Ki of equal to or greater than 1 micromolar as “E.”

`CNC(=O)c1ccnc(N[C@H]2CC[C@@H](Oc3cc(N4CCOCC4)cc4ncncc34)CC2)n1` [Compound 8, N-methyl-2-[[4-(7-morpholinoquinazolin-5-yl)oxycyclohexyl]amino]pyrimidine-4-carboxamide] registered an IC50 at DNA-PK [1] (Table 1) of under 100 nM. The Ki on DNA-PK [2] (Table 1, 100 μM ATP) is under 0.001 µM.
The molecule `O=C1c2ccccc2C(=O)N1[C@H]1CC[C@@H](Oc2cc(N3CCOCC3)cc3ncncc23)CC1` [Compound 7, 2-[4-(7-morpholinoquinazolin-5-yl)oxycyclohexyl]isoindoline-1,3-dione] gave an IC50 against DNA-PK [1] (Table 1) of 100 to 1000 nM. The molecule also displayed a Ki at DNA-PK [2] (Table 1, 100 μM ATP) of 0.001 to 0.01 µM.
At DNA-PK [1] (Table 1), `Cc1nccc(N[C@H]2CC[C@@H](Oc3cc(N4CCOCC4)cc4ncncc34)CC2)n1` [Compound 3, 2-methyl-N-[4-(7-morpholinoquinazolin-5-yl)oxycyclohexyl]pyrimidin-4-amine] returned an IC50 of under 100 nM. On DNA-PK [2] (Table 1, 100 μM ATP), this molecule returned a Ki of under 0.001 µM.
With `CCOC(=O)N[C@H]1CC[C@@H](Oc2cc(N3CCOCC3)cc3ncncc23)CC1` [Compound 22, ethyl ((1s,4s)-4-((7-morpholinoquinazolin-5-yl)oxy)cyclohexyl)carbamate], the IC50 against DNA-PK [1] (Table 1) was under 100 nM. At DNA-PK [2] (Table 1, 100 μM ATP), the Ki is under 0.001 µM.
Taken in the same sequence, the figures for `CNC(=O)c1ccnc(N[C@H]2CC[C@@H](Oc3cc(N4CCOCC4)cc4nc(C)ncc34)CC2)n1` [Compound 19] were under 100 nM and 0.001 to 0.01 µM.
On DNA-PK [1] (Table 1), `Cn1ccc(N[C@H]2CC[C@@H](Oc3cc(N4CCOCC4)cc4ncncc34)CC2)n1` [Compound 24, 1-methyl-N-((1s,4s)-4-((7-morpholinoquinazolin-5-yl)oxy)cyclohexyl)-1H-pyrazol-3-amine] came in with an IC50 of under 100 nM. At DNA-PK [2] (Table 1, 100 μM ATP), this molecule came in with a Ki of under 0.001 µM.
Taken in the same sequence, the figures for `Cc1nccc(N[C@H]2CC[C@@H](Oc3cc(N4CCOCC4)cc4nc(C)ncc34)CC2)n1` [Compound 12, 2-methyl-N-[4-(2-methyl-7-morpholino-quinazolin-5-yl)oxycyclohexyl]-pyrimidin-4-amine] were 100 to 1000 nM and 0.001 to 0.01 µM.
In the case of `COc1ccc(COc2cc(N3CCOCC3)cc3ncnc(C4CC4)c23)cc1` [Compound 56, 4-[4-cyclopropyl-5-[(4-methoxyphenyl)methoxy]quinazolin-7-yl]morpholine], the IC50 on DNA-PK [1] (Table 2) was 100 to 1000 nM.
`CNC(=O)c1ccnc(N[C@H]2CC[C@@H](Oc3cc(N4CCOCC4)cc4ncnc(C)c34)CC2)n1` [Compound 13, N-methyl-2-[[4-(4-methyl-7-morpholino-quinazolin-5-yl)oxycyclohexyl]amino]pyrimidine-4-carboxamide]: the IC50 at DNA-PK [1] (Table 1) was under 100 nM. The Ki at DNA-PK [2] (Table 1, 100 μM ATP) was under 0.001 µM.
Molecule `c1cnc(O[C@H]2CC[C@H](Oc3cc(N4CCOCC4)cc4ncncc34)CC2)nc1` [Compound 28, 4-[5-trans-(4-pyrimidin-2-yloxycyclohexoxy)quinazolin-7-yl]morpholine] came in with an IC50 against DNA-PK [1] (Table 1) of under 100 nM.
As for `COc1ccc(COc2cc(N3CCOCC3)cc3ncncc23)cc1` [Compound 52, 4-[5-[(4-methoxyphenyl)methoxy]quinazolin-7-yl]morpholine], the concentration for half-maximal inhibition (IC50) against DNA-PK [1] (Table 2) is at least 1000 nM. This molecule also displayed a Ki at DNA-PK [2] (Table 2, 100 μM ATP) of 0.001 to 0.01 µM.
For `COc1ccc(COc2cc(N3CCOCC3)cc3nc[nH]c(=O)c23)cc1` [Compound 51, 5-[(4-methoxyphenyl)methoxy]-7-morpholino-3H-quinazolin-4-one], the IC50 against DNA-PK [1] (Table 2) was at least 1000 nM. Besides, the Ki at DNA-PK [2] (Table 2, 100 μM ATP) lay in the range of 0.1 to 1 µM.
As to `COc1ncnc2cc(N3CCOCC3)cc(O[C@H]3CC[C@@H](Nc4nc(C)nc5c4OCC5)CC3)c12` [Compound 5, N-[4-(4-methoxy-7-morpholino-quinazolin-5-yl)oxycyclohexyl]-2-methyl-6,7-dihydrofuro[3,2-d]pyrimidin-4-amine], at DNA-PK [1] (Table 1), the half-inhibitory concentration (IC50) is under 100 nM. At DNA-PK [2] (Table 1, 100 μM ATP), the inhibition constant Ki was under 0.001 µM.
Take `CN1CCN(c2nccc(N[C@H]3CC[C@@H](Oc4cc(N5CCOCC5)cc5ncncc45)CC3)n2)CC1` [Compound 18, 2-(4-methylpiperazin-1-yl)-N-[4-(7-morpholinoquinazolin-5-yl)oxycyclohexyl]pyrimidin-4-amine]: the IC50 against DNA-PK [1] (Table 1) is under 100 nM. The Ki at DNA-PK [2] (Table 1, 100 μM ATP) is under 0.001 µM.
As for `Cn1cnc(C(=O)N[C@H]2CC[C@@H](Oc3cc(N4CCOCC4)cc4ncncc34)CC2)c1` [Compound 26, 1-methyl-N-((1s,4s)-4-((7-morpholinoquinazolin-5-yl)oxy)cyclohexyl)-1H-imidazole-4-carboxamide], at DNA-PK [1] (Table 1), the IC50 was in the range of 100 to 1000 nM.
Same read-out and setting: in the case of `CNC(=O)c1ccnc(N[C@H]2CC[C@@H](Oc3cc(N4CCOCC4)cc4ncn(C)c(=O)c34)CC2)n1` [Compound 25, N-methyl-2-[[4-(3-methyl-7-morpholino-4-oxo-quinazolin-5-yl)oxycyclohexyl]amino]pyrimidine-4-carboxamide] it was 100 to 1000 nM; in that of `Cc1nccc(N[C@H]2CC[C@@H](Oc3cc(N4CCOCC4)cc4ncn(C)c(=O)c34)CC2)n1` [Compound 21, 3-methyl-5-[4-[(2-methylpyrimidin-4-yl)amino]cyclohexoxy]-7-morpholino-quinazolin-4-one], 100 to 1000 nM.
Turning to `c1cnc(O[C@H]2CC[C@@H](Oc3cc(N4CCOCC4)cc4ncncc34)CC2)nc1` [Compound 27, 4-[5-cis-(4-pyrimidin-2-yloxycyclohexoxy)quinazolin-7-yl]morpholine], at DNA-PK [1] (Table 1), the IC50 was under 100 nM.
Consider `COc1ccc(COc2cc(N3CCOCC3)cc3ncnc(Cl)c23)cc1` [Compound 54, 4-[4-chloro-5-[(4-methoxyphenyl)methoxy]quinazolin-7-yl]morpholine], for which the Ki on DNA-PK [2] (Table 2, 100 μM ATP) lay in the range of 0.01 to 0.1 µM.
